One data set deals with interferon (α). The data set can be described thus: Cytokine Induction in Human Cells: interferon. Particulars: human PBMC, 18 to 24 hours, tested 30-0.014 μM, interferon (α) by ELISA; read-out: Lowest Effective Concentration (μM) Interferon. It counts as cell-based. From the text: (§1) An in vitro human blood cell system is used to assess cytokine induction. Activity is based on the measurement of interferon and tumor necrosis factor (α) (IFN and TNF, respectively) secreted into culture media as described by Testerman et. al. In “Cytokine Induction by the Immunomodulators Imiquimod and S-27609”, Journal of Leukocyte Biology, 58, 365-372 (September, 1995).
(§2) Whole blood from healthy human donors is collected by venipuncture into EDTA vacutainer tubes. Peripheral blood mononuclear cells (PBMC) are separated from whole blood by density gradient centrifugation using Histopaque®-1077. Blood is diluted 1:1 with Dulbecco's Phosphate Buffered Saline (DPBS) or Hank's Balanced Salts Solution (HBSS). The PBMC layer is collected and washed twice with DPBS or HBSS and resuspended at 4×10^6 cells/mL in RPMI complete. The PBMC suspension is added to 48 well flat bottom sterile tissue culture plates (Costar, Cambridge, Mass. or Becton Dickinson Labware, Lincoln Park, N.J.) containing an equal volume of RPMI complete media containing test compound.
(§3) The compounds are solubilized in dimethyl sulfoxide (DMSO). The DMSO concentration should not exceed a final concentration of 1% for addition to the culture wells. The compounds are generally tested at concentrations ranging from 30-0.014 μM.
(§4) The solution of test compound is added at 60 μM to the first well containing RPMI complete and serial 3 fold dilutions are made in the wells. The PBMC suspension is then added to the wells in an equal volume, bringing the test compound concentrations to the desired range (30-0.014 μM). The final concentration of PBMC suspension is 2×10^6 cells/mL. The plates are covered with sterile plastic lids, mixed gently and then incubated for 18 to 24 hours at 37° C. in a 5% carbon dioxide atmosphere.
(§5) Following incubation the plates are centrifuged for 10 minutes at 1000 rpm (˜200× g) at 4° C. The cell-free culture supernatant is removed with a sterile polypropylene pipet and transferred to sterile polypropylene tubes. Samples are maintained at −30 to −70° C. until analysis. The samples are analyzed for interferon (α) by ELISA and for tumor necrosis factor (α) by ELISA or IGEN Assay
Interferon (α) concentration is determined by ELISA using a Human Multi-Species kit from PBL Biomedical Laboratories, New Brunswick, N.J. Results are expressed in pg/mL.
(§6) The table below lists the lowest concentration found to induce interferon and the lowest concentration found to induce tumor necrosis factor for each compound.
For orientation: In an ELISA, binding on a coated surface is turned into a signal by an enzyme label.

The test system of data set [1] is tumor necrosis factor (α). Put plainly: Cytokine Induction in Human Cells: tumor necrosis factor. It counts as cell-based. More on the design: key to Lowest Effective Concentration (μM) Tumor Necrosis Factor: A “*” indicates that no induction was seen at any of the tested concentrations. Particulars: human PBMC, 18 to 24 hours, tested 30-0.014 μM, TNF by ELISA or IGEN assay; for minimal effective concentration: read-out: Lowest Effective Concentration (μM) Tumor Necrosis Factor.
From the text: as §1, §2, §3, §4, §5
Tumor necrosis factor (α) (TNF) concentration is determined using ELISA kits available from Biosource International, Camarillo, Calif. Alternately, the TNF concentration can be determined by Origen® M-Series Immunoassay and read on an IGEN M-8 analyzer from IGEN International, Gaithersburg, Md. The immunoassay uses a human TNF capture and detection antibody pair from Biosource International, Camarillo, Calif. Results are expressed in pg/mL.
as §6

One may read the melting point as the temperature of the solid-liquid transition.

Compound `CS(=O)(=O)CCCCCn1cnc2c(N)nc3ccccc3c21` [Example 14, 1-[5-(methylsulfonyl)pentyl]-1H-imidazo[4,5-c]quinolin-4-amine] displayed a melting point of 199 to 201 °C. For the same compound, the minimal effective concentration in the data set with interferon (α) amounted to 3.33 µM. In data set [1], the minimal effective concentration came out at 10 µM.
`CCCCCCc1nc2c(N)nc3ccccc3c2n1CCCCCS(C)(=O)=O` [Example 15, 2-hexyl-1-[5-(methylsulfonyl)pentyl]-1H-imidazo[4,5-c]quinolin-4-amine] returned a melting point of 168 to 171 °C. The minimal effective concentration in the data set with interferon (α) is 0.04 µM. In data set [1], the “Lowest Effective Concentration (μM) Tumor Necrosis Factor” value is reported as “*”.
`COCCc1nc2c(N)nc3ccccc3c2n1CCCCCS(C)(=O)=O` [Example 16, 2-(2-methoxyethyl)-1-[5-(methylsulfonyl)pentyl]-1H-imidazo[4,5-c]quinolin-4-amine] displayed a melting point of 158 to 160 °C. In addition, the minimal effective concentration in the data set on interferon (α) is 0.01 µM. In data set [1], the minimal effective concentration came to 0.04 µM.
For `CCCCc1nc2c(N)nc3ccccc3c2n1CCCCCSC` [Example 17, 2-butyl-1-[5-(methylthio)pentyl]-1H-imidazo[4,5-c]quinolin-4-amine], in that order: 112 to 114 °C, 0.01 µM and 0.04 µM.
On to `CCCCc1nc2c(N)nc3ccccc3c2n1CCCCC[S+](C)[O-]` (stereo not drawn) [Example 18, 2-butyl-1-[5-(methylsulfinyl)pentyl]-1H-imidazo[4,5-c]quinolin-4-amine], for which the melting point lay within 119 to 121 °C. In the data set with interferon (α), the minimal effective concentration came to 0.01 µM. For the same compound, the minimal effective concentration in data set [1] turned out to be 0.12 µM.
`CCCCc1nc2c(N)nc3ccccc3c2n1CCCS(C)(=O)=O` [Example 19, 2-butyl-1-[3-(methylsulfonyl)propyl]-1H-imidazo[4,5-c]quinolin-4-amine]: the melting point fell in the range of 233 to 236 °C. Also, in the data set with interferon (α), the minimal effective concentration came out at 0.04 µM. In data set [1], the minimal effective concentration came out at 0.37 µM.
`CCCCc1nc2c(N)nc3ccccc3c2n1CCCS(=O)(=O)c1ccccc1` [Example 20, 2-butyl-1-[3-(phenylsulfonyl)propyl]-1H-imidazo[4,5-c]quinolin-4-amine] gave a melting point of 224 to 227 °C. Also, the minimal effective concentration in the data set with interferon (α) turned out to be 0.04 µM. Besides, the minimal effective concentration in data set [1] is 0.37 µM.
On to `CCCc1nc2c(N)nc3ccccc3c2n1CCCCCS(C)(=O)=O` [Example 21, 1-[5-(methylsulfonyl)pentyl]-2-propyl-1H-imidazo[4,5-c]quinolin-4-amine], for which the melting point is 179 to 181 °C. Moreover, the minimal effective concentration in the data set on interferon (α) was found to be 0.12 µM. Besides, the minimal effective concentration in data set [1] was found to be 0.37 µM.
On to `CSCCCn1c(C)nc2c(N)nc3ccccc3c21` [Example 22, 2-methyl-1-[3-(methylthio)propyl]-1H-imidazo[4,5-c]quinolin-4-amine], for which the melting point lay within 199 to 202 °C. Besides, in the data set with interferon (α), the minimal effective concentration came to 0.37 µM. For the same compound, the minimal effective concentration in data set [1] came out at 1.11 µM.
`Cc1nc2c(N)nc3ccccc3c2n1CCCS(C)(=O)=O` [Example 23, 2-methyl-1-[3-(methylsulfonyl)propyl]-1H-imidazo[4,5-c]quinolin-4-amine] yielded a melting point of 225 to 228 °C. Besides, the minimal effective concentration in the data set with interferon (α) worked out at 3.33 µM. Also, in data set [1], the minimal effective concentration was found to be 10 µM.
Take `CCc1nc2c(N)nc3ccccc3c2n1CCCSC` [Example 24, 2-ethyl-1-[3-(methylthio)propyl]-1H-imidazo[4,5-c]quinolin-4-amine]: the melting point fell in the range of 210 to 212 °C. The minimal effective concentration in the data set with interferon (α) came out at 0.12 µM. Besides, in data set [1], the minimal effective concentration came to 0.37 µM.
As to `CCc1nc2c(N)nc3ccccc3c2n1CCCS(C)(=O)=O` [Example 25, 2-ethyl-1-[3-(methylsulfonyl)propyl]-1H-imidazo[4,5-c]quinolin-4-amine], the melting point was over 250 °C. In addition, the minimal effective concentration in the data set on interferon (α) was found to be 0.37 µM. Besides, in data set [1], the minimal effective concentration worked out at 3.33 µM.
`CSCCCCn1c(C)nc2c(N)nc3ccccc3c21` [Example 26, 2-methyl-1-[4-(methylthio)butyl]-1H-imidazo[4,5-c]quinolin-4-amine] registered a melting point of 190 to 193 °C. Also, the minimal effective concentration with interferon (α) was found to be 0.04 µM. The minimal effective concentration in data set [1] was 0.37 µM.
`Cc1nc2c(N)nc3ccccc3c2n1CCCC[S+](C)[O-]` (stereo not drawn) [Example 27, 2-methyl-1-[4-(methylsulfinyl)butyl]-1H-imidazo[4,5-c]quinolin-4-amine] yielded a melting point of 184 to 187 °C. For the same compound, the minimal effective concentration in the data set on interferon (α) came to 3.33 µM. The minimal effective concentration in data set [1] is 10 µM.
With `CCc1nc2c(N)nc3ccccc3c2n1CCCCSC` [Example 28, 2-ethyl-1-[4-(methylthio)butyl]-1H-imidazo[4,5-c]quinolin-4-amine], the melting point is 183 to 186 °C. The minimal effective concentration in the data set with interferon (α) was 0.01 µM. Moreover, the minimal effective concentration in data set [1] came to 0.37 µM.
The compound `CCc1nc2c(N)nc3ccccc3c2n1CCCCS(C)(=O)=O` [Example 29, 2-ethyl-1-[4-(methylsulfonyl)butyl]-1H-imidazo[4,5-c]quinolin-4-amine] showed a melting point of 182 to 185 °C. Besides, the minimal effective concentration in the data set on interferon (α) was found to be 0.12 µM. The minimal effective concentration in data set [1] was 3.33 µM.
`CCCCc1nc2c(N)nc3ccccc3c2n1CCCC[S+](C)[O-]` (stereo not drawn) [Example 31, 2-butyl-1-[4-(methylsulfinyl)butyl]-1H-imidazo[4,5-c]quinolin-4-amine] yielded a melting point of 126 to 128 °C. Besides, the minimal effective concentration in the data set with interferon (α) was determined as 0.04 µM. Also, the minimal effective concentration in data set [1] was found to be 0.12 µM.
The compound `CSCCn1c(C)nc2c(N)nc3ccccc3c21` [Example 32, 2-methyl-1-[2-(methylthio)ethyl]-1H-imidazo[4,5-c]quinolin-4-amine] registered a melting point of 193 to 195 °C. Besides, in the data set on interferon (α), the minimal effective concentration was determined as 0.12 µM. Also, the minimal effective concentration in data set [1] was 0.12 µM.
As for `Cc1nc2c(N)nc3ccccc3c2n1CCS(C)(=O)=O` [Example 33, 2-methyl-1-[2-(methylsulfonyl)ethyl]-1H-imidazo[4,5-c]quinolin-4-amine], the melting point lay in the range of 242 to 245 °C. In the data set on interferon (α), the minimal effective concentration is 3.33 µM. In addition, the minimal effective concentration in data set [1] was 10 µM.
The compound `Cc1nc2c(N)nc3ccccc3c2n1CCCCS(C)(=O)=O` [Example 34, 2-methyl-1-[4-(methylsulfonyl)butyl]-1H-imidazo[4,5-c]quinolin-4-amine] came in with a melting point of 206 to 209 °C. For the same compound, in the data set on interferon (α), the minimal effective concentration worked out at 0.37 µM. The minimal effective concentration in data set [1] was 3.33 µM.
For the compound `CCc1nc2c(N)nc3ccccc3c2n1CCS(C)(=O)=O` [Example 35, 2-ethyl-1-[2-(methylsulfonyl)ethyl]-1H-imidazo[4,5-c]quinolin-4-amine], the melting point was 222 to 225 °C. In addition, the minimal effective concentration in the data set on interferon (α) is 1.11 µM. Besides, in data set [1], the minimal effective concentration is 3.33 µM.
Compound `CCCc1nc2c(N)nc3ccccc3c2n1CCS(C)(=O)=O` [Example 36, 1-[2-(methylsulfonyl)ethyl]-2-propyl-1H-imidazo[4,5-c]quinolin-4-amine] yielded a melting point of 212 to 214 °C. Moreover, the minimal effective concentration in the data set on interferon (α) came out at 1.11 µM. Also, in data set [1], the minimal effective concentration turned out to be 1.11 µM.
In turn, `CCCCc1nc2c(N)nc3ccccc3c2n1CCCCSc1ccc(F)cc1F` [Example 37, 2-butyl-1-{4-[(2,4-difluorophenyl)thio]butyl}-1H-imidazo[4,5-c]quinolin-4-amine] showed a melting point of 122 to 126 °C. The minimal effective concentration with interferon (α) was determined as 0.37 µM. Further, the minimal effective concentration in data set [1] worked out at 1.11 µM.

The values above are taken from patent publication US6667312B2, “Thioether substituted imidazoquinolines” (3M Innovative Properties Company, priority 2000, dated 2003).
